Source: the NIST ThermoML archive (doi:10.1016/j.jct.2015.08.014)

Test: xn = mol fraction of the nth substance listed
Details: 293.15 K, 100 kPa, Liquid, Alternating current cell with electrodes

CCCC[N+]1(C)CCCC1.N#CN=C=[N-] [1-butyl-1-methylpyrrolidinium dicyanamide] + O=C1CCCO1
Details | electrical conductivity [S/m]
Frequency=0.0015 MHz, x1 = 0.3029 | 2.29
Frequency=0.0015 MHz, x1 = 0.3845 | 2.112
Frequency=0.0015 MHz, x1 = 0.4985 | 1.84
Frequency=0.0015 MHz, x1 = 0.6954 | 1.46
Frequency=0.0015 MHz, x1 = 0.9013 | 1.19
Frequency=0.0015 MHz, x1 = 1 | 1.123
Frequency=0.002 MHz, x1 = 0.0463 | 1.37
Frequency=0.002 MHz, x1 = 0.0987 | 2.04
Frequency=0.002 MHz, x1 = 0.1449 | 2.31
Frequency=0.002 MHz, x1 = 0.1859 | 2.443
Frequency=0.002 MHz, x1 = 0.2493 | 2.37
Frequency=0.002 MHz, x1 = 0.3029 | 2.29
Frequency=0.002 MHz, x1 = 0.3845 | 2.113
Frequency=0.002 MHz, x1 = 0.4985 | 1.84
Frequency=0.002 MHz, x1 = 0.6954 | 1.46
Frequency=0.002 MHz, x1 = 0.9013 | 1.19
Frequency=0.002 MHz, x1 = 1 | 1.123
Frequency=0.0025 MHz, x1 = 0.0463 | 1.37
Frequency=0.0025 MHz, x1 = 0.0987 | 2.04
Frequency=0.0025 MHz, x1 = 0.1449 | 2.31
Frequency=0.0025 MHz, x1 = 0.1859 | 2.445
Frequency=0.0025 MHz, x1 = 0.2493 | 2.37
Frequency=0.0025 MHz, x1 = 0.3029 | 2.29
Frequency=0.0025 MHz, x1 = 0.3845 | 2.114
Frequency=0.0025 MHz, x1 = 0.4985 | 1.84
Frequency=0.0025 MHz, x1 = 0.6954 | 1.46
Frequency=0.0025 MHz, x1 = 0.9013 | 1.19
Frequency=0.0025 MHz, x1 = 1 | 1.123
Frequency=0.003 MHz, x1 = 0.0463 | 1.37
Frequency=0.003 MHz, x1 = 0.0987 | 2.05
Frequency=0.003 MHz, x1 = 0.1449 | 2.31
Frequency=0.003 MHz, x1 = 0.1859 | 2.45
Frequency=0.003 MHz, x1 = 0.2493 | 2.37
Frequency=0.003 MHz, x1 = 0.3029 | 2.29
Frequency=0.003 MHz, x1 = 0.3845 | 2.114
Frequency=0.003 MHz, x1 = 0.4985 | 1.84
Frequency=0.003 MHz, x1 = 0.6954 | 1.46
Frequency=0.003 MHz, x1 = 0.9013 | 1.19
Frequency=0.003 MHz, x1 = 1 | 1.123
Frequency=0.00347222 MHz, x1 = 0.0463 | 1.37
Frequency=0.00347222 MHz, x1 = 0.0987 | 2.05
Frequency=0.00347222 MHz, x1 = 0.1449 | 2.31
Frequency=0.00347222 MHz, x1 = 0.1859 | 2.45
Frequency=0.00347222 MHz, x1 = 0.2493 | 2.37
Frequency=0.00347222 MHz, x1 = 0.3029 | 2.29
Frequency=0.00347222 MHz, x1 = 0.3845 | 2.115
Frequency=0.00347222 MHz, x1 = 0.4985 | 1.84
Frequency=0.00347222 MHz, x1 = 0.6954 | 1.46
Frequency=0.00347222 MHz, x1 = 0.9013 | 1.19
Frequency=0.00347222 MHz, x1 = 1 | 1.123
Frequency=0.004 MHz, x1 = 0.0463 | 1.37
Frequency=0.004 MHz, x1 = 0.0987 | 2.05
Frequency=0.004 MHz, x1 = 0.1449 | 2.31
Frequency=0.004 MHz, x1 = 0.1859 | 2.45
Frequency=0.004 MHz, x1 = 0.2493 | 2.37
Frequency=0.004 MHz, x1 = 0.3029 | 2.29
Frequency=0.004 MHz, x1 = 0.3845 | 2.115
Frequency=0.004 MHz, x1 = 0.4985 | 1.84
Frequency=0.004 MHz, x1 = 0.6954 | 1.46
Frequency=0.004 MHz, x1 = 0.9013 | 1.19
Frequency=0.004 MHz, x1 = 1 | 1.123
Frequency=0.00446429 MHz, x1 = 0.0463 | 1.37
Frequency=0.00446429 MHz, x1 = 0.0987 | 2.05
Frequency=0.00446429 MHz, x1 = 0.1449 | 2.31
Frequency=0.00446429 MHz, x1 = 0.1859 | 2.45
Frequency=0.00446429 MHz, x1 = 0.2493 | 2.37
Frequency=0.00446429 MHz, x1 = 0.3029 | 2.29
Frequency=0.00446429 MHz, x1 = 0.3845 | 2.115
Frequency=0.00446429 MHz, x1 = 0.4985 | 1.84
Frequency=0.00446429 MHz, x1 = 0.6954 | 1.46
Frequency=0.00446429 MHz, x1 = 0.9013 | 1.19
Frequency=0.00446429 MHz, x1 = 1 | 1.123
Frequency=0.005 MHz, x1 = 0.0463 | 1.37
Frequency=0.005 MHz, x1 = 0.0987 | 2.05
Frequency=0.005 MHz, x1 = 0.1449 | 2.31
Frequency=0.005 MHz, x1 = 0.1859 | 2.45
Frequency=0.005 MHz, x1 = 0.2493 | 2.37
Frequency=0.005 MHz, x1 = 0.3029 | 2.29
Frequency=0.005 MHz, x1 = 0.3845 | 2.115
Frequency=0.005 MHz, x1 = 0.4985 | 1.84
Frequency=0.005 MHz, x1 = 0.6954 | 1.46
Frequency=0.005 MHz, x1 = 0.9013 | 1.19
Frequency=0.005 MHz, x1 = 1 | 1.123
Frequency=0.005454 MHz, x1 = 0.0463 | 1.37
Frequency=0.005454 MHz, x1 = 0.0987 | 2.05
Frequency=0.005454 MHz, x1 = 0.1449 | 2.31
Frequency=0.005454 MHz, x1 = 0.1859 | 2.45
Frequency=0.005454 MHz, x1 = 0.2493 | 2.37
Frequency=0.005454 MHz, x1 = 0.3029 | 2.29
Frequency=0.005454 MHz, x1 = 0.3845 | 2.116
Frequency=0.005454 MHz, x1 = 0.4985 | 1.84
Frequency=0.005454 MHz, x1 = 0.6954 | 1.46
Frequency=0.005454 MHz, x1 = 0.9013 | 1.19
Frequency=0.005454 MHz, x1 = 1 | 1.123
Frequency=0.006 MHz, x1 = 0.0463 | 1.37
Frequency=0.006 MHz, x1 = 0.0987 | 2.05
Frequency=0.006 MHz, x1 = 0.1449 | 2.31
Frequency=0.006 MHz, x1 = 0.1859 | 2.45
Frequency=0.006 MHz, x1 = 0.2493 | 2.37
Frequency=0.006 MHz, x1 = 0.3029 | 2.29
Frequency=0.006 MHz, x1 = 0.3845 | 2.116
Frequency=0.006 MHz, x1 = 0.4985 | 1.84
Frequency=0.006 MHz, x1 = 0.6954 | 1.46
Frequency=0.006 MHz, x1 = 0.9013 | 1.19
Frequency=0.006 MHz, x1 = 1 | 1.123
Frequency=0.00652174 MHz, x1 = 0.0463 | 1.37
Frequency=0.00652174 MHz, x1 = 0.0987 | 2.05
